From patent US9770026B2, “Substituted pyrimidine compound and uses thereof” (Shenyang Sinochem Agrochemicals R&D Co., Ltd., priority 2012, dated 2017) come the findings set out here.

In general, inhibition refers to the change of the read-out against control, counted positive when it falls.

Assay [1] concerns Green peach aphids (Myzus Persicae Sulzer). The assay can be described thus: bioactivity test against green peach aphid, airbrush foliar spray. It is filed as in vivo. The settings on record: for pest or weed control at 5 µg/mL / pest or weed control at 10 µg/mL / pest or weed control at 100 µg/mL / pest or weed control at 600 µg/mL / pest or weed control at 2.5 µg/mL: Myzus persicae, foliar, 48 h, read-out: Insecticidal activity against peach aphid (%); for pest or weed control at 5 µg/mL / pest or weed control at 10 µg/mL / pest or weed control at 100 µg/mL / pest or weed control at 600 µg/mL / pest or weed control at 2.5 µg/mL / Insecticidal activity against peach aphid (%): contrastive test; for control (test results against green peach aphid): death rate after 48 hrs. In outline:
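Death rate was scored at 48 hrs, held at 25±1 C and 60±5% RH, following airbrush foliar spray (0.5 mL, 10 psi) onto cabbage leaf discs bearing about 15-30 aphids. Test solutions: compound dissolved in 1:1 acetone:methanol, brought to concentration with 0.1% tween 80 water.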

In a further assay the test system is armyworm. The assay is described as follows: bioactivity test against armyworm, airbrush spray. Format: in vivo. The settings on record: for pest or weed control at 600 µg/mL / pest or weed control at 10 µg/mL / pest or weed control at 100 µg/mL: 72 h, read-out: Insecticidal activity against armyworm (%); for pest or weed control at 600 µg/mL: 600 mg/L; for control (test results against armyworm): mortality after 72 h; for pest or weed control at 10 µg/mL: 10 mg/L; for pest or weed control at 100 µg/mL: 100 mg/L.

The next assay concerns Diamond back moth. The assay is described as follows: insecticidal activity against diamond back moth, airbrush spray. It is filed as in vivo. As to conditions: for pest or weed control at 10 µg/mL / pest or weed control at 100 µg/mL / pest or weed control at 600 µg/mL: 72 h; for pest or weed control at 10 µg/mL: 10 mg/L; for pest or weed control at 100 µg/mL: 100 mg/L; for pest or weed control at 600 µg/mL: 600 mg/L; for control (test results against diamond back moth): mortality after 72 hrs. In outline:
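Airbrush leaf-disc spray test: both faces of 2 cm cabbage discs received 0.5 ml of test solution at 0.7 kg/cm^2. Solutions were made in acetone:methanol (1:1) and brought to concentration with 0.1% Tween 80 in water. Ten second-instar larvae per disc, triplicates, were held at 25° C and 60˜70% R.H., with mortality recorded at 72 hrs.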

For another assay, the system named is rice blast. The assay can be described thus: microbe, parasite or virus in culture. It is filed as cell-based. As to conditions: Pyricularia oryzae; for inhibition at 25 ppm: read-out: inhibition rate against rice blast, 25 ppm, in vitro.
The next assay deals with corn rust. The assay is described as follows: protectant activity in vivo against corn rust. As to conditions: for pest or weed control at 0.4 µg/mL / pest or weed control at 1.6 µg/mL / pest or weed control at 6.25 µg/mL / pest or weed control at 25 µg/mL / pest or weed control at 100 µg/mL / pest or weed control at 400 µg/mL: Zea mays, 168 h, protectant activity; for pest or weed control at 0.4 µg/mL: read-out: control effect against corn rust (%), 0.4 mg/L; for pest or weed control at 1.6 µg/mL: read-out: control effect against corn rust (%), 1.6 mg/L; for pest or weed control at 6.25 µg/mL: read-out: control effect against corn rust (%), 6.25 mg/L; for pest or weed control at 25 µg/mL: read-out: control effect against corn rust (%), 25 mg/L; for pest or weed control at 100 µg/mL: read-out: control effect against corn rust (%), 100 mg/L; for pest or weed control at 400 µg/mL: read-out: control effect against corn rust (%), 400 mg/L.

The test system of another assay is carmine spider mite. The assay can be described thus: bioactivity test against carmine spider mite, airbrush spray. It is filed as in vivo. As to conditions: for pest or weed control at 10 µg/mL / pest or weed control at 100 µg/mL / pest or weed control at 600 µg/mL: Tetranychus cinnabarinus, 72 h, read-out: Insecticidal activity against carmine spider mite (% ); for control against carmine spider mite: mortality after 72 hrs. Summed up:
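Broadbean seedlings infested with adult mites were sprayed with compound (acetone/methanol stock diluted in 0.1% Tween 80 water) by airbrush at 0.7 kg/cm^2, 0.5 ml. Three replicates were run. Mortality was scored after 72 hrs.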

The test system of a further assay is cucumber downy mildew. The assay is described as follows: protectant activity in vivo against cucumber downy mildew. The settings on record: Cucumis sativus, 168 h, protectant activity.
For a further assay, the system named is wheat powdery mildew. The assay can be described thus: protectant activity in vivo against wheat powdery mildew. As to conditions: for pest or weed control at 6.25 µg/mL / pest or weed control at 25 µg/mL / pest or weed control at 100 µg/mL / pest or weed control at 400 µg/mL: Triticum aestivum, 168 h, protectant activity; for pest or weed control at 6.25 µg/mL: read-out: control effect against wheat powdery mildew (%), 6.25 mg/L; for pest or weed control at 25 µg/mL: read-out: control effect against wheat powdery mildew (%), 25 mg/L; for pest or weed control at 100 µg/mL: read-out: control effect against wheat powdery mildew (%), 100 mg/L; for pest or weed control at 400 µg/mL: read-out: control effect against wheat powdery mildew (%), 400 mg/L.

Consider `CCc1ncnc(NC(C)c2ccc(Oc3ncc(C(F)(F)F)cc3Cl)cc2)c1Cl` (stereo not shown) [CK39, reference compound], for which, in assay [1] (5 mg/L), the pest or weed control at 5 µg/mL was found to be 0%. In addition, the pest or weed control at 10 µg/mL was 2% in assay [1] (10 mg/L); 0% in the assay on Diamond back moth; 16% with carmine spider mite (10 mg/L, contrastive test). In addition, the pest or weed control at 100 µg/mL in assay [1] (100 mg/L) is 86%; in the assay with Diamond back moth, 20%; with corn rust, 100%; with carmine spider mite (100 mg/L, contrastive test), 37%. Besides, the pest or weed control at 600 µg/mL was determined as 100% in assay [1] (600 mg/L); 0% in the assay on armyworm; 80% with Diamond back moth; 100% in the assay with carmine spider mite (600 mg/L, contrastive test). The inhibition at 25 ppm with rice blast is 0%. Also, the pest or weed control at 0.4 µg/mL in the assay on corn rust is 0%. Also, the pest or weed control at 1.6 µg/mL in the assay with corn rust was 10%. The pest or weed control at 6.25 µg/mL with corn rust is 50%. In addition, in the assay on corn rust, the pest or weed control at 25 µg/mL was 80%. For the same molecule, the pest or weed control at 400 µg/mL in the assay with corn rust was determined as 100%.
As for `CCc1ncnc(NCc2ccc(Oc3ncc(C(F)(F)F)cc3Cl)cc2)c1Cl` [CK38, reference compound], the pest or weed control at 10 µg/mL in assay [1] (10 mg/L) was determined as 0%; in the assay with Diamond back moth, 5%; with carmine spider mite (10 mg/L, contrastive test), 14%. The pest or weed control at 100 µg/mL was found to be 24% in assay [1] (100 mg/L); 21% in the assay on Diamond back moth; 37% in the assay on carmine spider mite (100 mg/L, contrastive test). Besides, the pest or weed control at 600 µg/mL is 100% in assay [1] (600 mg/L); 0% in the assay with armyworm; 100% in the assay on Diamond back moth; 99% in the assay on carmine spider mite (600 mg/L, contrastive test). Further, the inhibition at 25 ppm with rice blast is 0%. Also, the pest or weed control at 400 µg/mL with corn rust was 0%.
In the case of `FC(F)(F)c1ccc(Oc2ccc(CCNc3ncnc4ccccc34)cc2)cc1` [CK11, reference compound], in assay [1] (2.5 mg/L), the pest or weed control at 2.5 µg/mL turned out to be 0%. For the same molecule, the pest or weed control at 5 µg/mL in assay [1] (5 mg/L) turned out to be 25%. Besides, the pest or weed control at 10 µg/mL in assay [1] (10 mg/L) worked out at 85%; with Diamond back moth, 5%. Further, the pest or weed control at 100 µg/mL in assay [1] (100 mg/L) is 98%; in the assay on cucumber downy mildew (read-out: control effect against cucumber downy mildew (%), 100 mg/L), 30%; with Diamond back moth, 55%; in the assay with wheat powdery mildew it was 60%. Moreover, the pest or weed control at 600 µg/mL in assay [1] (600 mg/L) was determined as 100%; in the assay with armyworm it was 29%; in the assay on Diamond back moth, 86%. The pest or weed control at 25 µg/mL came to 0% with cucumber downy mildew (read-out: control effect against cucumber downy mildew (%), 25 mg/L) and 40% in the assay with wheat powdery mildew. In the assay with cucumber downy mildew (read-out: control effect against cucumber downy mildew (%), 50 mg/L), the pest or weed control at 50 µg/mL turned out to be 0%. For the same molecule, the pest or weed control at 400 µg/mL in the assay with cucumber downy mildew (read-out: control effect against cucumber downy mildew (%), 400 mg/L) was determined as 85%; in the assay with wheat powdery mildew it was 100%. For the same molecule, the pest or weed control at 6.25 µg/mL in the assay on wheat powdery mildew was 0%. In the assay with rice blast, the inhibition at 25 ppm came out at 0%.
Take `CCc1ncnc(NCCc2ccc(Oc3ccc(C(F)(F)F)cn3)cc2)c1Cl` [Compound I-6758]: the “Insecticidal activity against peach aphid (%)” value in assay [1] (1.25 mg/L) is on record as 89%; in assay [1] (2.5 mg/L), 100%; in assay [1] (5 mg/L), 100%; in assay [1] (10 mg/L) it was 100%; in assay [1] (100 mg/L) it was 100%; in assay [1] (600 mg/L), 100%. Moreover, the “control (test results against green peach aphid)” value in assay [1] (2.5 ppm), in assay [1] (5 ppm), in assay [1] (10 ppm), in assay [1] (100 ppm) and in assay [1] (600 ppm) was 100% each time. Moreover, the “control (test results against armyworm)” value in the assay with armyworm (100 ppm) and in the assay on armyworm (600 ppm) was 100% throughout. In addition, the “control (test results against diamond back moth)” value in the assay on Diamond back moth (100 ppm) and with Diamond back moth (600 ppm) was 100% each time. Also, the “protectant activity against wheat powdery mildew in vivo” value in the assay with wheat powdery mildew (100 ppm) and with wheat powdery mildew (400 ppm) was 100% each time. For the same molecule, the inhibition at 8.3 ppm in the assay on rice blast (read-out: inhibition rate against rice blast, 8.3 ppm, in vitro) fell in the range of 80 to 99%. Further, the “protectant activity against corn rust in vivo” value with corn rust (100 ppm) and in the assay with corn rust (400 ppm) was 100% each time. Also, the “Insecticidal activity against carmine spider mite (% )” value in the assay with carmine spider mite (2.5 mg/L) was determined as 79%; in the assay with carmine spider mite (5 mg/L) it was 82%; with carmine spider mite (10 mg/L, contrastive test) it was 99%; in the assay with carmine spider mite (100 mg/L, contrastive test), 100%; in the assay on carmine spider mite (600 mg/L, contrastive test), 100%. Also, the “control against carmine spider mite” value in the assay on carmine spider mite (100 ppm) and with carmine spider mite (600 ppm) was 100% each time.
As for `CCc1ncnc(NC(C)c2ccc(Oc3ccc(C(F)(F)F)cn3)cc2)c1Cl` (stereo not shown) [CK40, reference compound], the pest or weed control at 2.5 µg/mL in assay [1] (2.5 mg/L) stood at 0%. In assay [1] (5 mg/L), the pest or weed control at 5 µg/mL was determined as 27%. The pest or weed control at 10 µg/mL in assay [1] (10 mg/L) came out at 72%. In assay [1] (100 mg/L), the pest or weed control at 100 µg/mL came out at 100%. Further, the pest or weed control at 600 µg/mL in assay [1] (600 mg/L) came out at 100%. Moreover, in the assay on armyworm, the pest or weed control at 10 µg/mL stood at 0%, the pest or weed control at 100 µg/mL is 6% and the pest or weed control at 600 µg/mL was 43%. For the same molecule, in the assay on Diamond back moth, the pest or weed control at 10 µg/mL was determined as 13%, the pest or weed control at 100 µg/mL was 29% and the pest or weed control at 600 µg/mL came to 100%. In the assay with rice blast, the inhibition at 25 ppm was under 50%. Further, in the assay on corn rust, the pest or weed control at 0.4 µg/mL turned out to be 0%, the pest or weed control at 1.6 µg/mL was determined as 30%, the pest or weed control at 6.25 µg/mL amounted to 70% and the pest or weed control at 25 µg/mL is 90%. In addition, in the assay on corn rust, the pest or weed control at 100 µg/mL amounted to 100% and the pest or weed control at 400 µg/mL turned out to be 100%.
Take `CCC(Nc1ncnc(C)c1Cl)c1ccc(Oc2ccc(C(F)(F)F)cn2)cc1` (stereo not shown) [CK41, reference compound]: the pest or weed control at 2.5 µg/mL in assay [1] (2.5 mg/L) turned out to be 0%. Moreover, the pest or weed control at 5 µg/mL in assay [1] (5 mg/L) is 15%. Also, the pest or weed control at 10 µg/mL came to 23% in assay [1] (10 mg/L); 0% with armyworm; 0% in the assay with Diamond back moth; 0% in the assay on carmine spider mite (10 mg/L, contrastive test). For the same molecule, the pest or weed control at 100 µg/mL in assay [1] (100 mg/L) turned out to be 97%; in the assay on armyworm, 0%; in the assay on Diamond back moth, 53%; with wheat powdery mildew, 70%; in the assay on corn rust it was 100%; in the assay with carmine spider mite (100 mg/L, contrastive test), 99%. Moreover, the pest or weed control at 600 µg/mL was 100% in assay [1] (600 mg/L); 100% with armyworm; 86% in the assay with Diamond back moth; 100% in the assay with carmine spider mite (600 mg/L, contrastive test). Besides, the pest or weed control at 6.25 µg/mL in the assay on wheat powdery mildew worked out at 0%; with corn rust it was 80%. In addition, the pest or weed control at 25 µg/mL with wheat powdery mildew was 50%; in the assay on corn rust it was 90%. In addition, the pest or weed control at 400 µg/mL with wheat powdery mildew and in the assay with corn rust was 100% in each case. Moreover, in the assay with rice blast, the inhibition at 25 ppm was under 50%. Besides, in the assay with corn rust, the pest or weed control at 0.4 µg/mL is 0%. Besides, the pest or weed control at 1.6 µg/mL with corn rust was 20%.
